Results as given in US20060115502A1, “Cosmetic composition based on cirsimarin” (GATTEFOSSE SAS, priority 2003, published 2006).

What was measured:
[1] = tested on: isolated adipocytes; experiment: Lipolytic activity in vitro on isolated adipocytes (fatty acids released, NEFA C kit); format: cell-based, rats; settings: cirsimarin tested at 0.5 mM and 0.1 mM; 1 hour at 37° C.; FIG. 2
Experimental: a. Positive references and products to be assessed • Noradrenalin (syn. Norepinephrine NE): this molecule, with a molar mass of […], is assessed at the final concentration of 1 μM in a Krebs-Ringer buffer at 4% albumin. • Caffeine: this molecule, with a molar mass of 194.2 g, is assessed at the final concentration of 0.5 mM in a Krebs-Ringer buffer at 4% albumin. • Theophylline: this molecule, with a molar mass of 180.2, is assessed at the final concentration of 0.5 mM in a Krebs-Ringer buffer at 4% albumin. • Cirsimarin: this molecule, with a molar mass of 476.44, is tested at 0.5 mM and 0.1 mM. This molecule is first solubilized in a mixture of solvents: NaOH 0.2 M/DMSO (95/5; v/v). […]
The lipolytic activity is measured by the quantity of fatty acids released; for this, a NEFA C (Non Esterified Fatty Acid/Colorimetric) colorimetric dosage kit sold by Wako® Chemical GmbH is used.
The quantity of fatty acids present in tubes 0 minus that present in tubes 00 corresponds to the basal lipolysis of the adipocytes in the buffer. The quantity of fatty acids present in tubes 0 solvent minus that present in tubes 00 corresponds to the basal lipolysis of the adipocytes in the buffer containing the cirsimarin solution solvent. The quantity of fatty acids released in reaction tubes minus that present in tubes 00 corresponds to the lipolysis induced by the molecules studied.

[2] = target: T1, A1 receptor (Homo sapiens, UniProt P30542); settings: from literature; cited from earlier work
T1 sequence (P30542 1-326): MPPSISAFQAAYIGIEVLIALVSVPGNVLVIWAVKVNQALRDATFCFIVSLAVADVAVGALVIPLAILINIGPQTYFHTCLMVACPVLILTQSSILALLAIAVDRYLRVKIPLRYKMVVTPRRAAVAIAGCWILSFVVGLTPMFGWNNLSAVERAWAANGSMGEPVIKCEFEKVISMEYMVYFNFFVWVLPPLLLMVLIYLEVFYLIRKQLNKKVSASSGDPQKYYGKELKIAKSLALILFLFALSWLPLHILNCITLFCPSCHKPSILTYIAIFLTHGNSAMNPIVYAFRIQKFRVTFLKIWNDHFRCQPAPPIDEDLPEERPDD

[3] = tested on: lipolysis; settings: documents by Nogowski and Jacobson; cited from earlier work

For `COc1cc2oc(-c3ccc(O[C@@H]4O[C@H](CO)[C@@H](O)[C@H](O)[C@H]4O)cc3)cc(=O)c2c(O)c1OC` [cirsimarin, 5-hydroxy-6,7-dimethoxyflavone 4′-O-glucoside], the “lipolytic activity (quantity of fatty acids released)” value [1] is listed as “proven in vitro lipolytic activity” and the “A1 receptor antagonist properties” value [2] is listed as “A1 receptor antagonist properties”.

In the case of `O=c1c(-c2ccc(O)cc2)coc2cc(O)cc(O)c12` [genistein], the lipolytic activity [3] is listed as “negligible lipolytic activity” and the “A1 receptor antagonist properties” value [2] is listed as “identified as an A1 receptor antagonist”.
